Consider 2 compounds from ChEMBL document CHEMBL1151129, “Two new bioactive carbazole alkaloids from the root bark of Clausena harmandiana” (J Nat Prod, 1988).

Usually LC50 stands for the concentration that kills 50% of the test population.

In brackets after ≈: the same amount, converted by molar mass.

In one series the test system is Artemia. Kind of series: Toxicity to brine shrimp. The following applies: in vivo. Format: organism-based.
For a further series, the system named is A549. The series can be described thus: Cytotoxicity against human A549 cells. Format: functional. The following applies: read-out: ED50 (the source's name).
A short description of series [1]: Cytotoxicity against mouse 9PS cells. Format: functional. The following applies: read-out: ED50 (the source's name).
Series [2] can be described thus: Cytotoxicity against human KBMRI cells. Type of series: functional. The following applies: read-out: ED50 (the source's name).
Series [3] can be described thus: Cytotoxicity against human 9KB cells. Format: functional. The settings on record: read-out: ED50 (the source's name).
A further series concerns HT-29. Kind of series: Cytotoxicity against human HT-29 cells. Type of series: functional. The settings on record: read-out: ED50 (the source's name).

As to `COc1ccc2c(c1)[nH]c1cc(O)c(C=O)cc12`, the LC50 in the series on Artemia was determined as 35 ppm. For the same compound, the EC50 in the series with A549 was 2.74 µg/mL (≈ 11.4 µM); in series [1] it was greater than 10 µg/mL; in series [2], 4.48 µg/mL (≈ 18.6 µM); in series [3] it was 5.7 µg/mL (≈ 23.6 µM); in the series with HT-29, 4 µg/mL (≈ 16.6 µM).
For the compound `COc1ccc2c(c1)[nH]c1c(CC=C(C)C)c(O)c(C=O)cc12`, in the series with Artemia, the LC50 is greater than 500 ppm. Also, the EC50 is 2.16 µg/mL (≈ 6.98 µM) with A549; greater than 10 µg/mL in series [1]; 2.87 µg/mL (≈ 9.28 µM) in series [2]; 3.01 µg/mL (≈ 9.73 µM) in series [3]; 1.36 µg/mL (≈ 4.4 µM) in the series on HT-29.
